Reference: patent US12428396B2, “Fused pyridine ring derivative, preparation method therefor, and pharmaceutical use thereof” (priority 2019, dated 2025)

How the values were obtained:
HIV-1 capsid protein = target: T1, HIV-1 capsid protein (Human immunodeficiency virus type 1 group M subtype B, UniProt P12493); experiment: In vitro polymerization of HIV-1 capsid protein (His-CA/GST-CA, Eu cryptate/XL665 energy transfer); assay type: biochemical, HIV-1 NL4-3; settings: for Imax: 37° C., 2 h incubation
T1 construct: made in house; host or cells: E. coli (pET30 vector)
Source text: • 1. MAb Anti GST-Eu cryptate (Cisbio) • 2. MAb Anti 6HIS-XL665 (Cisbio) • 3. His tag HIV-1 capsid protein (hereinafter referred to as His-CA) • 4. GST tag HIV-1 capsid protein (hereinafter referred to as GST-CA) • 5. 384-well unbound surface microplate, white (Corning) • 6. Microplate reader (BMG)
The HIV-1 capsid proteins aggregate spontaneously in high-salt solutions. Capsid protein sequences derived from HIV-1 NL4-3 strains (GeneBank AF324493.2) were separately tagged with 6His tag and GST tag sequences at the C-terminus, cloned into pET30 vectors, and expressed and separately tagged for expression in E. coli system and purified. His-CA and GST-CA were mixed at high-salt concentrations, and the level of polymerization of capsid proteins was detected using GST antibody labeled with Eu3+-Cryptate (energy donor) and His antibody labeled with XL665 (energy acceptor). Since the excitation spectrum of Eu3+-Cryptate overlapped with the excitation spectrum of XL665, when the capsid proteins with these two tags formed a poly complex, the energy donor and the energy acceptor could be drawn to a sufficiently close distance, the energy donor released part of the captured energy under the excitation of an external light source (such as a xenon lamp or a laser), with the emission wavelength being 620 nM, part of the resonance was transferred to the energy acceptor to excite the energy acceptor, with the emission wavelength being 665 nM, and an optical signal was generated, the signal intensity of which was in direct proportion to the degree of polymerization of the tag proteins.
His-CA was diluted to 2 μM in a clean tube with protein diluent (50 mM Tris-HCl, pH 8.0, 50 mM NaCl, 0.4 mM MgCl2, 0.05% Triton X-100, 2% glycerol) while MAb Anti 6HIS-XL665 at a final concentration of 260 nM was added; GST-CA was diluted to 20 nM with protein diluent in another clean tube while MAb Anti GST-Eu cryptate at a final concentration of 3.33 nM was added and incubated on ice for half an hour. Compounds were first formulated into a concentration of 20 mM with DMSO, then diluted to a first concentration of 2 mM with DMSO and serially 5-fold diluted to the 8th concentration. Control wells were set and added with DMSO, and serially-diluted compounds were then 20-fold diluted with protein diluent to 10-fold working concentrations. Preparation of capsid protein polymerization liquid at 2-fold concentration: 50 mM Tris-HCl, pH 8.0, 1 M NaCl, 800 mM KF; to a pre-cooled white round-bottomed 384-well plate were added 4 uL of His-CA-His antibody mixture, 4 uL of GST-CA-GST antibody mixture, 2 uL of the compounds at 10-fold concentration and 10 uL of capsid protein polymerization reaction liquid at 2-fold concentration, the plate was sealed with a light-shielding sealing plate membrane after uniformly mixing, and the reaction plate was placed in a 37° C. incubator for incubation for 2 h. After incubation, the samples were excited with an excitation light at 337 nM, and signal values at 620 nM and 665 nM were collected for detection, wherein Ratio values=(665 nM/620 nM signal)×10000 was calculated according to the signal values. IC50 values for compounds were calculated using Graphpad Prism software based on each concentration of the compounds and the corresponding Ratio values.

[1] = Thermodynamic stability test of atropisomerism (LC-MS); assay type: physicochemical
Description: Agilent 1200 DAD model LC-MS; column: waters sunfire C18, 4.6×75 mm, 3.5 μm; mobile phase: water (0.1% trifluoroacetic acid):acetonitrile (0.1% trifluoroacetic acid).
The compounds of Examples 1-1a, 1-1b were atropisomers of each other and had different retention times in the LC-MS spectra, and the tautomerism of the atropisomers could be detected by LC-MS.
Compound 1-1a (1.5 mg) was dissolved in acetonitrile (1.0 mL), and the reaction solution was heated at 40° C. for 1.0 h, and the change in purity of compound 1-1a was detected by LC-MS. Compound 1-1a (1.5 mg) was dissolved in dimethyl sulfoxide (1.0 mL), and the reaction solution was heated at 120° C. for 3.0 h, and the change in purity of compound 1-1a was detected by LC-MS.
The same procedure was used to test the change in purity of compound 1-1b at 40° C. and 120° C.
The compounds of Examples 5-1, 5-2 were atropisomers of each other and had different retention times in the LC-MS spectra, and the tautomerism of the atropisomers could be detected by LC-MS.
Compound 5-1 (1.0 mg) was dissolved in DMSO (1.0 mL), and the reaction solution was heated at 37° C. and 120° C. for 3.0 h, respectively, and the change in purity of compound 5-1 was detected by LC-MS.

Structure (SMILES)	IC50 (HIV-1 capsid protein) [nM]	Imax (HIV-1 capsid protein) [%]	atropisomer stability (change in purity by LC-MS) ([1]; heated at 37° C. for 3.0 h in DMSO)	atropisomer stability (change in purity by LC-MS) ([1]; heated at 120° C. for 3.0 h in dimethyl sulfoxide)
CC(C)(C#Cc1nc([C@H](Cc2cc(F)cc(F)c2)NC(=O)Cn2nc(C(F)(F)F)c3c2C(F)(F)[C@@H]2C[C@H]32)c(-c2ccc(Cl)c3c(NS(C)(=O)=O)nn(CC(F)(F)F)c23)c2c1CCC2)S(=O)(=O)C1CC1 (atropisomer, axis not shown; (aR)) [Example 3, N—((S)-1-((R)-4-(4-chloro-3-(methanesulfonamido)-1-(2,2,2-trifluoroethyl)-1H-indazol-7-yl)-1-(3-(cyclopropylsulfonyl)-3-methyl-but-1-yn-1-yl)-6,7-dihydro-5H-cyclopenta[c]pyridin-3-yl)-2-(3,5-difluorophenyl)ethyl)-2-((3bS,4aR)-5,5-difluoro-3-(trifluoromethyl)-3b,4,4a,5-tetrahydro-1H-cyclopropa[3,4]cyclopenta[1,2-c]pyrazol-1-yl)acetamide]	24	98	–	–
CC(C)(C#Cc1nc([C@H](Cc2cc(F)cc(F)c2)NC(=O)Cn2nc(C(F)(F)F)c3c2C(F)(F)[C@@H]2C[C@H]32)c(-c2ccc(Cl)c3c(NS(C)(=O)=O)nn(CC(F)(F)F)c23)c2ccccc12)S(C)(=O)=O (atropisomer, axis not shown; (aR)) [Example 6, N—((S)-1-((R)-4-(4-chloro-3-(methanesulfonamido)-1-(2,2,2-trifluoroethyl)-1H-indazol-7-yl)-1-(3-methyl-3-(methanesulfonyl)but-1-yn-1-yl)isoquinolin-3-yl)-2-(3,5-difluorophenyl)ethyl)-2-((3bS,4aR)-5,5-difluoro-3-(trifluoromethyl)-3b,4,4a,5-tetrahydro-1H-cyclopropa[3,4]cyclopenta[1,2-c]pyrazol-1-yl)acetamide]	107	75	–	–
CC(C)(C#Cc1nc([C@H](Cc2cc(F)cc(F)c2)NC(=O)Cn2nc(C(F)(F)F)c3c2C(F)(F)[C@@H]2C[C@H]32)c(-c2ccc(Cl)c3c(NS(=O)(=O)C4CC4)nn(CC(F)(F)F)c23)c2c1CCC2)S(=O)(=O)C1CC1 (atropisomer, axis not shown; (aR)) [Example 4, N—((S)-1-((R)-4-(4-chloro-3-(cyclopropylsulfonamide)-1-(2,2,2-trifluoroethyl)-1H-indazol-7-yl)-1-(3-(cyclopropylsulfonyl)-3-methyl-but-1-yn-1-yl)-6,7-dihydro-5H-cyclopenta [c]pyridin-3-yl)-2-(3,5-difluorophenyl)ethyl)-2-((3bS,4aR)-5,5-difluoro-3-(trifluoromethyl)-3b,4,4a,5-tetrahydro-1H-cyclopropa[3,4]cyclopenta[1,2-c]pyrazol-1-1)acetamide]	68	91	–	–
CC(C)(C#Cc1nc([C@H](Cc2cc(F)cc(F)c2)NC(=O)Cn2nc(C(F)(F)F)c3c2C(F)(F)[C@@H]2C[C@H]32)c(-c2ccc(Cl)c3c(NS(C)(=O)=O)nn(CC(F)(F)F)c23)c2c1CCCC2)S(C)(=O)=O (single isomer, unassigned) [Example 5-1]	37	108	stable single-configuration compound	stable single-configuration compound
CC(C)(C#Cc1nc([C@H](Cc2cc(F)cc(F)c2)NC(=O)Cn2nc(C(F)(F)F)c3c2C(F)(F)[C@@H]2C[C@H]32)c(-c2ccc(Cl)c3c(NS(=O)(=O)C4CC4)nn(CC(F)(F)F)c23)c2c1CCC2)S(C)(=O)=O (atropisomer, axis not shown; (aR)) [Example 2, N—((S)-1-((R)-4-(4-chloro-3-(cyclopropylsulfonamide)-1-(2,2,2-trifluoroethyl)-1H-indazol-7-yl)-1-(3-methyl-3-(methylsulfonyl)but-1-yn-1-yl)-6,7-dihydro-5H-cyclopenta[c]pyridin-3-yl)-2-(3,5-difluorophenyl)ethyl)-2-((3bS,4aR)-5,5-difluoro-3-(trifluoromethyl)-3 b,4,4a,5-tetrahydro-1H-cyclopropa[3,4]cyclopenta[1,2-c]pyrazol-1-yl)acetamide]	19	100	–	–
